{"source": "patent US10167262B2", "about": "“Herbicidal substituted 3-arylpyrazoles” (FMC CORPORATION, priority 2014, dated 2019)", "experiment_in_all_cases": "Test C pre-/postemergence greenhouse test, plant response rating 0-100;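 on Plant response rating (0 to 100), Blackgrass: 0 is no effect and 100 is complete control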;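 on Plant response rating (0 to 100), Ragweed: 0 is no effect and 100 is complete control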;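 on Plant response rating, Blackgrass: 0 is no effect and 100 is complete control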;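 on Plant response rating, Ragweed: 0 is no effect and 100 is complete control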", "assay_type_in_all_cases": "in vivo", "key": {"[1]": {"test_system": "blackgrass (Alopecurus myosuroides)", "summary_of_the_method": "(§1)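 Greenhouse test. Preemergence: seed in loam:sand, sprayed with formulated chemical (solvent + surfactant). Postemergence: 1–4 leaf plants, 2–18 cm, peat-based potting medium. Hold 13–15 d; score visually, 0 (none) to 100 (complete control); dash = not tested.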"}, "corn (Zea mays)": {"test_system": "corn (Zea mays)", "summary_of_the_method": "as §1"}, "[2]": {"test_system": "galium (catchweed bedstraw, Galium aparine)", "summary_of_the_method": "as §1"}, "[3]": {"test_system": "johnsongrass (Sorghum halepense)", "summary_of_the_method": "as §1"}, "[4]": {"test_system": "lambsquarters (Chenopodium album)", "summary_of_the_method": "as §1"}, "[5]": {"test_system": "large (Lg) crabgrass (Digitaria sanguinalis)", "summary_of_the_method": "as §1"}, "[6]": {"test_system": "morningglory (Ipomoea coccinea)", "summary_of_the_method": "as §1"}, "[7]": {"test_system": "pigweed (Amaranthus retroflexus)", "summary_of_the_method": "as §1"}, "[8]": {"test_system": "ragweed (common ragweed, Ambrosia elatior)", "summary_of_the_method": "as §1"}, "[9]": {"test_system": "velvetleaf (Abutilon theophrasti)", "summary_of_the_method": "as §1"}, "[10]": {"test_system": "winter wheat (Triticum aestivum)", "summary_of_the_method": "as §1"}, "[11]": {"test_system": "yellow nutsedge (Cyperus esculentus)", "summary_of_the_method": "as §1"}, "[12]": {"conditions": "Postemergence, 250 g ai/ha, scale 0 to 100"}, "[13]": {"conditions": "Postemergence, 500 g ai/ha, scale 0 to 100"}}}
{"smiles": "CCOC(OCC)(c1cccs1)c1c[nH]nc1-c1cc(Cl)cc(Cl)c1", "note": "[Compound 27]", "values": [{"measurement": "Plant response rating (0 to 100), Blackgrass", "setting": "[1]; Postemergence, 62 g ai/ha", "result": 0}, {"measurement": "Plant response rating, Blackgrass", "setting": "[1]; Postemergence, 125 g ai/ha, scale 0 to 100", "result": 5}, {"measurement": "Plant response rating, Blackgrass", "setting": "[1]; [12]", "result": 0}, {"measurement": "Plant response rating, Blackgrass", "setting": "[1]; [13]", "result": 0}, {"measurement": "Plant response rating, Blackgrass", "setting": "[1]; Preemergence, 62 g ai/ha", "result": 20}, {"measurement": "Plant response rating, Blackgrass", "setting": "[1]; Preemergence, 125 g ai/ha", "result": 0}, {"measurement": "Plant response rating, Blackgrass", "setting": "[1]; Preemergence, 250 g ai/ha", "result": 50}, {"measurement": "Plant response rating, Blackgrass", "setting": "[1]; Preemergence, 500 g ai/ha", "result": 0}, {"measurement": "Plant response rating (0 to 100), Corn", "setting": "corn (Zea mays); Postemergence, 62 g ai/ha", "result": 0}, {"measurement": "Plant response rating (0 to 100), Corn", "setting": "corn (Zea mays); Postemergence, 125 g ai/ha", "result": 0}, {"measurement": "Plant response rating, Corn", "setting": "corn (Zea mays); [12]", "result": 0}, {"measurement": "Plant response rating, Corn", "setting": "corn (Zea mays); [13]", "result": 0}, {"measurement": "Plant response rating, Corn", "setting": "corn (Zea mays); Preemergence, 62 g ai/ha", "result": 0}, {"measurement": "Plant response rating, Corn", "setting": "corn (Zea mays); Preemergence, 125 g ai/ha", "result": 0}, {"measurement": "Plant response rating, Corn", "setting": "corn (Zea mays); Preemergence, 250 g ai/ha", "result": 0}, {"measurement": "Plant response rating, Corn", "setting": "corn (Zea mays); Preemergence, 500 g ai/ha", "result": 0}, {"measurement": "Plant response rating (0 to 100), Galium", "setting": "[2]; Postemergence, 62 g ai/ha", "result": 0}, {"measurement": "Plant response rating (0 to 100), Galium", "setting": "[2]; Postemergence, 125 g ai/ha", "result": 0}, {"measurement": "Plant response rating, Galium", "setting": "[2]; [12]", "result": 0}, {"measurement": "Plant response rating, Galium", "setting": "[2]; [13]", "result": 0}, {"measurement": "Plant response rating, Galium", "setting": "[2]; Preemergence, 62 g ai/ha", "result": 0}, {"measurement": "Plant response rating, Galium", "setting": "[2]; Preemergence, 125 g ai/ha", "result": 50}, {"measurement": "Plant response rating, Galium", "setting": "[2]; Preemergence, 250 g ai/ha", "result": 80}, {"measurement": "Plant response rating, Galium", "setting": "[2]; Preemergence, 500 g ai/ha", "result": 30}, {"measurement": "Plant response rating (0 to 100), Johnsongrass", "setting": "[3]; Postemergence, 62 g ai/ha", "result": 0}, {"measurement": "Plant response rating (0 to 100), Johnsongrass", "setting": "[3]; Postemergence, 125 g ai/ha", "result": 0}, {"measurement": "Plant response rating, Johnsongrass", "setting": "[3]; [12]", "result": 0}, {"measurement": "Plant response rating, Johnsongrass", "setting": "[3]; [13]", "result": 10}, {"measurement": "Plant response rating, Johnsongrass", "setting": "[3]; Preemergence, 62 g ai/ha", "result": 0}, {"measurement": "Plant response rating, Johnsongrass", "setting": "[3]; Preemergence, 125 g ai/ha", "result": 0}, {"measurement": "Plant response rating, Johnsongrass", "setting": "[3]; Preemergence, 250 g ai/ha", "result": 0}, {"measurement": "Plant response rating, Johnsongrass", "setting": "[3]; Preemergence, 500 g ai/ha", "result": 0}, {"measurement": "Plant response rating (0 to 100), Lambsquarters", "setting": "[4]; Postemergence, 62 g ai/ha", "result": 75}, {"measurement": "Plant response rating (0 to 100), Lambsquarters", "setting": "[4]; Postemergence, 125 g ai/ha", "result": 95}, {"measurement": "Plant response rating, Lambsquarters", "setting": "[4]; [12]", "result": 98}, {"measurement": "Plant response rating, Lambsquarters", "setting": "[4]; [13]", "result": 98}, {"measurement": "Plant response rating, Lambsquarters", "setting": "[4]; Preemergence, 62 g ai/ha", "result": 100}, {"measurement": "Plant response rating, Lambsquarters", "setting": "[4]; Preemergence, 125 g ai/ha", "result": 100}, {"measurement": "Plant response rating, Lambsquarters", "setting": "[4]; Preemergence, 250 g ai/ha", "result": 100}, {"measurement": "Plant response rating, Lambsquarters", "setting": "[4]; Preemergence, 500 g ai/ha", "result": 100}, {"measurement": "Plant response rating (0 to 100), Crabgrass, Large", "setting": "[5]; Postemergence, 62 g ai/ha", "result": 0}, {"measurement": "Plant response rating (0 to 100), Crabgrass, Large", "setting": "[5]; Postemergence, 125 g ai/ha", "result": 0}, {"measurement": "Plant response rating, Crabgrass, Large", "setting": "[5]; [12]", "result": 10}, {"measurement": "Plant response rating, Crabgrass, Large", "setting": "[5]; [13]", "result": 10}, {"measurement": "Plant response rating, Crabgrass, Large", "setting": "[5]; Preemergence, 62 g ai/ha", "result": 0}, {"measurement": "Plant response rating, Crabgrass, Large", "setting": "[5]; Preemergence, 125 g ai/ha", "result": 0}, {"measurement": "Plant response rating, Crabgrass, Large", "setting": "[5]; Preemergence, 250 g ai/ha", "result": 0}, {"measurement": "Plant response rating, Crabgrass, Large", "setting": "[5]; Preemergence, 500 g ai/ha", "result": 0}, {"measurement": "Plant response rating (0 to 100), Morningglory", "setting": "[6]; Postemergence, 62 g ai/ha", "result": 0}, {"measurement": "Plant response rating (0 to 100), Morningglory", "setting": "[6]; Postemergence, 125 g ai/ha", "result": 0}, {"measurement": "Plant response rating, Morningglory", "setting": "[6]; [12]", "result": 0}, {"measurement": "Plant response rating, Morningglory", "setting": "[6]; [13]", "result": 55}, {"measurement": "Plant response rating, Morningglory", "setting": "[6]; Preemergence, 62 g ai/ha", "result": 0}, {"measurement": "Plant response rating, Morningglory", "setting": "[6]; Preemergence, 125 g ai/ha", "result": 0}, {"measurement": "Plant response rating, Morningglory", "setting": "[6]; Preemergence, 250 g ai/ha", "result": 0}, {"measurement": "Plant response rating, Morningglory", "setting": "[6]; Preemergence, 500 g ai/ha", "result": 0}, {"measurement": "Plant response rating (0 to 100), Pigweed", "setting": "[7]; Postemergence, 62 g ai/ha", "result": 80}, {"measurement": "Plant response rating (0 to 100), Pigweed", "setting": "[7]; Postemergence, 125 g ai/ha", "result": 95}, {"measurement": "Plant response rating, Pigweed", "setting": "[7]; [12]", "result": 100}, {"measurement": "Plant response rating, Pigweed", "setting": "[7]; [13]", "result": 100}, {"measurement": "Plant response rating, Pigweed", "setting": "[7]; Preemergence, 62 g ai/ha", "result": 98}, {"measurement": "Plant response rating, Pigweed", "setting": "[7]; Preemergence, 125 g ai/ha", "result": 100}, {"measurement": "Plant response rating, Pigweed", "setting": "[7]; Preemergence, 250 g ai/ha", "result": 100}, {"measurement": "Plant response rating, Pigweed", "setting": "[7]; Preemergence, 500 g ai/ha", "result": 100}, {"measurement": "Plant response rating (0 to 100), Ragweed", "setting": "[8]; Postemergence, 62 g ai/ha", "result": 65}, {"measurement": "Plant response rating (0 to 100), Ragweed", "setting": "[8]; Postemergence, 125 g ai/ha", "result": 75}, {"measurement": "Plant response rating, Ragweed", "setting": "[8]; [12]", "result": 90}, {"measurement": "Plant response rating, Ragweed", "setting": "[8]; [13]", "result": 75}, {"measurement": "Plant response rating, Ragweed", "setting": "[8]; Preemergence, 62 g ai/ha", "result": 98}, {"measurement": "Plant response rating, Ragweed", "setting": "[8]; Preemergence, 125 g ai/ha", "result": 70}, {"measurement": "Plant response rating, Ragweed", "setting": "[8]; Preemergence, 250 g ai/ha", "result": 70}, {"measurement": "Plant response rating, Ragweed", "setting": "[8]; Preemergence, 500 g ai/ha", "result": 100}, {"measurement": "Plant response rating (0 to 100), Velvetleaf", "setting": "[9]; Postemergence, 62 g ai/ha", "result": 65}, {"measurement": "Plant response rating (0 to 100), Velvetleaf", "setting": "[9]; Postemergence, 125 g ai/ha", "result": 70}, {"measurement": "Plant response rating, Velvetleaf", "setting": "[9]; [12]", "result": 75}, {"measurement": "Plant response rating, Velvetleaf", "setting": "[9]; [13]", "result": 75}, {"measurement": "Plant response rating, Velvetleaf", "setting": "[9]; Preemergence, 62 g ai/ha", "result": 10}, {"measurement": "Plant response rating, Velvetleaf", "setting": "[9]; Preemergence, 125 g ai/ha", "result": 40}, {"measurement": "Plant response rating, Velvetleaf", "setting": "[9]; Preemergence, 250 g ai/ha", "result": 65}, {"measurement": "Plant response rating, Velvetleaf", "setting": "[9]; Preemergence, 500 g ai/ha", "result": 60}, {"measurement": "Plant response rating (0 to 100), Wheat", "setting": "[10]; Postemergence, 62 g ai/ha", "result": 0}, {"measurement": "Plant response rating (0 to 100), Wheat", "setting": "[10]; Postemergence, 125 g ai/ha", "result": 0}, {"measurement": "Plant response rating, Wheat", "setting": "[10]; [12]", "result": 0}, {"measurement": "Plant response rating, Wheat", "setting": "[10]; [13]", "result": 0}, {"measurement": "Plant response rating, Wheat", "setting": "[10]; Preemergence, 62 g ai/ha", "result": 0}, {"measurement": "Plant response rating, Wheat", "setting": "[10]; Preemergence, 125 g ai/ha", "result": 0}, {"measurement": "Plant response rating, Wheat", "setting": "[10]; Preemergence, 250 g ai/ha", "result": 0}, {"measurement": "Plant response rating, Wheat", "setting": "[10]; Preemergence, 500 g ai/ha", "result": 0}, {"measurement": "Plant response rating (0 to 100), Nutsedge, Yellow", "setting": "[11]; Postemergence, 62 g ai/ha", "result": 0}, {"measurement": "Plant response rating (0 to 100), Nutsedge, Yellow", "setting": "[11]; Postemergence, 125 g ai/ha", "result": 0}, {"measurement": "Plant response rating, Nutsedge, Yellow", "setting": "[11]; [12]", "result": 0}, {"measurement": "Plant response rating, Nutsedge, Yellow", "setting": "[11]; [13]", "result": 0}, {"measurement": "Plant response rating, Nutsedge, Yellow", "setting": "[11]; Preemergence, 62 g ai/ha", "result": 0}, {"measurement": "Plant response rating, Nutsedge, Yellow", "setting": "[11]; Preemergence, 125 g ai/ha", "result": 0}, {"measurement": "Plant response rating, Nutsedge, Yellow", "setting": "[11]; Preemergence, 250 g ai/ha", "result": 0}, {"measurement": "Plant response rating, Nutsedge, Yellow", "setting": "[11]; Preemergence, 500 g ai/ha", "result": 0}]}
